Data: ChEMBL document CHEMBL1201862, “PubChem BioAssay data set” (2004)
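Growth conditions: 96-well plates. Treatment: test compound, 48 hours, 5 concentrations. Analysis: linear interpolation between bracketing concentrations; unreached endpoints set to highest concentration. GI50: concentration for 50% inhibition of growth.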 Activity calls are given as the source filed them. No stated cut-off is given here; in the data, active = GI50 up to about 1.1 µM and inactive = higher.

How the values were obtained:
Experiment in all cases: inhibition of tumour cell growth, NCI panel, 48 h
HCT-15 = system: HCT-15
SK-MEL-2 = system: SK-MEL-2
A498 = system: A498
T47D = system: T47D
HL-60 = system: HL-60
HOP-62 = system: HOP-62
786-0 = system: 786-0
OVCAR-8 = system: OVCAR-8
UO-31 = system: UO-31
OVCAR-5 = system: OVCAR-5
DU-145 = system: DU-145
A549 = system: A549
LOX IMVI = system: LOX IMVI
MDA-MB-435 = system: MDA-MB-435
SK-MEL-28 = system: SK-MEL-28
ACHN = system: ACHN
EKVX = system: EKVX
NCI-H460 = system: NCI-H460
SF-539 = system: SF-539
SNB-19 = system: SNB-19
SF-295 = system: SF-295
COLO 205 = system: COLO 205
MCF7 = system: MCF7
TK-10 = system: TK-10
UACC-62 = system: UACC-62
MDA-N = system: MDA-N
HCT-116 = system: HCT-116
HCC 2998 = system: HCC 2998
HT-29 = system: HT-29
MDA-MB-231 = system: MDA-MB-231
SF-268 = system: SF-268
NCI/ADR-RES = system: NCI/ADR-RES
RXF 393 = system: RXF 393
CAKI-1 = system: CAKI-1
SK-MEL-5 = system: SK-MEL-5
BT-549 = system: BT-549
OVCAR-3 = system: OVCAR-3
SN12C = system: SN12C
PC-3 = system: PC-3
M14 = system: M14
SR = system: SR
OVCAR-4 = system: OVCAR-4
SK-OV-3 = system: SK-OV-3
RPMI-8226 = system: RPMI-8226
NCI-H522 = system: NCI-H522
Hs-578T = system: Hs-578T
K562 = system: K562
U-251 = system: U-251
Malme-3M = system: Malme-3M
IGROV-1 = system: IGROV-1
MOLT-4 = system: MOLT-4
UACC-257 = system: UACC-257
HOP-92 = system: HOP-92
NCI-H23 = system: NCI-H23
NCI-H226 = system: NCI-H226
SNB-75 = system: SNB-75
SW-620 = system: SW-620
KM12 = system: KM12
CCRF-CEM = system: CCRF-CEM

## O=C(O)[C@H](c1ccccc1)[C@@H](C(=O)O)c1ccccc1
HCT-15
  GI50: > 100 µM
SK-MEL-2
  GI50: > 100 µM (inactive)
A498
  GI50: > 100 µM (inactive)
T47D
  GI50: > 100 µM (inactive)
HL-60
  GI50: 0.228 µM (active)
HOP-62
  GI50: > 100 µM (inactive)
786-0
  GI50: > 100 µM (inactive)
OVCAR-8
  GI50: > 100 µM (inactive)
UO-31
  GI50: > 100 µM (inactive)
OVCAR-5
  GI50: > 100 µM (inactive)
DU-145
  GI50: > 100 µM (inactive)
A549
  GI50: > 100 µM (inactive)
LOX IMVI
  GI50: > 100 µM (inactive)
MDA-MB-435
  GI50: > 100 µM (inactive)
SK-MEL-28
  GI50: > 100 µM (inactive)
ACHN
  GI50: > 100 µM (inactive)
EKVX
  GI50: > 100 µM (inactive)
NCI-H460
  GI50: > 100 µM (inactive)
SF-539
  GI50: > 100 µM (inactive)
SNB-19
  GI50: > 100 µM (inactive)
SF-295
  GI50: > 100 µM (inactive)
COLO 205
  GI50: > 100 µM (inactive)
MCF7
  GI50: > 100 µM (inactive)
TK-10
  GI50: > 100 µM (inactive)
UACC-62
  GI50: > 100 µM (inactive)
MDA-N
  GI50: > 100 µM (inactive)
HCT-116
  GI50: > 100 µM (inactive)
HCC 2998
  GI50: > 100 µM (inactive)
HT-29
  GI50: > 100 µM (inactive)
MDA-MB-231
  GI50: > 100 µM (inactive)
SF-268
  GI50: > 100 µM (inactive)
NCI/ADR-RES
  GI50: > 100 µM (inactive)
RXF 393
  GI50: > 100 µM (inactive)
CAKI-1
  GI50: > 100 µM (inactive)
SK-MEL-5
  GI50: > 100 µM (inactive)
BT-549
  GI50: > 100 µM (inactive)
OVCAR-3
  GI50: > 100 µM (inactive)
SN12C
  GI50: > 100 µM (inactive)
PC-3
  GI50: > 100 µM (inactive)
M14
  GI50: > 100 µM (inactive)
SR
  GI50: > 100 µM (inactive)
OVCAR-4
  GI50: > 100 µM (inactive)
SK-OV-3
  GI50: > 100 µM (inactive)
RPMI-8226
  GI50: > 100 µM (inactive)
NCI-H522
  GI50: > 100 µM (inactive)
Hs-578T
  GI50: > 100 µM (inactive)
K562
  GI50: > 100 µM (inactive)
U-251
  GI50: > 100 µM (inactive)
Malme-3M
  GI50: > 100 µM (inactive)
IGROV-1
  GI50: > 100 µM (inactive)
MOLT-4
  GI50: > 100 µM (inactive)
UACC-257
  GI50: > 100 µM (inactive)
HOP-92
  GI50: > 100 µM (inactive)
NCI-H23
  GI50: > 100 µM (inactive)
NCI-H226
  GI50: > 100 µM (inactive)
SNB-75
  GI50: > 100 µM (inactive)
SW-620
  GI50: > 100 µM (inactive)
KM12
  GI50: > 100 µM (inactive)

## CC(=O)OCCOCn1cc(C=O)c2ccccc21
HCT-15
  GI50: > 100 µM
SK-MEL-2
  GI50: > 100 µM (inactive)
A498
  GI50: 1.95 µM (inactive)
T47D
  GI50: > 100 µM (inactive)
HL-60
  GI50: > 100 µM (inactive)
HOP-62
  GI50: > 100 µM (inactive)
786-0
  GI50: > 100 µM (inactive)
OVCAR-8
  GI50: > 100 µM (inactive)
UO-31
  GI50: > 100 µM (inactive)
OVCAR-5
  GI50: 67.5 µM (inactive)
DU-145
  GI50: > 100 µM (inactive)
A549
  GI50: > 100 µM (inactive)
LOX IMVI
  GI50: > 100 µM (inactive)
MDA-MB-435
  GI50: > 100 µM (inactive)
SK-MEL-28
  GI50: > 100 µM (inactive)
ACHN
  GI50: > 100 µM (inactive)
EKVX
  GI50: > 100 µM (inactive)
NCI-H460
  GI50: 33.2 µM (inactive)
SF-539
  GI50: > 100 µM (inactive)
SNB-19
  GI50: > 100 µM (inactive)
SF-295
  GI50: > 100 µM (inactive)
COLO 205
  GI50: > 100 µM (inactive)
MCF7
  GI50: > 100 µM (inactive)
TK-10
  GI50: > 100 µM (inactive)
UACC-62
  GI50: > 100 µM (inactive)
MDA-N
  GI50: > 100 µM (inactive)
HCT-116
  GI50: > 100 µM (inactive)
HCC 2998
  GI50: > 100 µM (inactive)
HT-29
  GI50: > 100 µM (inactive)
MDA-MB-231
  GI50: > 100 µM (inactive)
SF-268
  GI50: > 100 µM (inactive)
NCI/ADR-RES
  GI50: > 100 µM (inactive)
RXF 393
  GI50: > 100 µM (inactive)
CAKI-1
  GI50: > 100 µM (inactive)
SK-MEL-5
  GI50: 75 µM (inactive)
BT-549
  GI50: > 100 µM (inactive)
OVCAR-3
  GI50: > 100 µM (inactive)
SN12C
  GI50: > 100 µM (inactive)
PC-3
  GI50: > 100 µM (inactive)
M14
  GI50: > 100 µM (inactive)
SR
  GI50: > 100 µM (inactive)
SK-OV-3
  GI50: > 100 µM (inactive)
RPMI-8226
  GI50: > 100 µM (inactive)
CCRF-CEM
  GI50: > 100 µM (inactive)
NCI-H522
  GI50: 49.3 µM (inactive)
Hs-578T
  GI50: > 100 µM (inactive)
K562
  GI50: > 100 µM (inactive)
U-251
  GI50: > 100 µM (inactive)
Malme-3M
  GI50: > 100 µM (inactive)
IGROV-1
  GI50: > 100 µM (inactive)
MOLT-4
  GI50: > 100 µM (inactive)
UACC-257
  GI50: > 100 µM (inactive)
HOP-92
  GI50: > 100 µM (inactive)
NCI-H23
  GI50: > 100 µM (inactive)
SNB-75
  GI50: > 100 µM (inactive)
SW-620
  GI50: > 100 µM (inactive)
KM12
  GI50: > 100 µM (inactive)
